Reference: patent US10668149B2, “Combination therapies for heme malignancies with anti-CD38 antibodies and survivin inhibitors” (Janssen Biotech, Inc., priority 2015, dated 2020)
“Also recorded” adds a separate entry of the source.

Experiments:
RPMI-8226 cells = test: Compartment-specific BLI-based ADCC cytotoxicity assay, RPMI-8226; format: cell-based, human; conditions: 4 hours; for lysis of cells: daratumumab 0.3 μg/ml, YM155 1 nM, PBMC effector:target 40:1
Method: (§1) hBMSC were plated at a density of 1×10^4 cells/well in white opaque flat-bottomed 96-well plates (Costar) in 100 μl culture medium. After an adherence period of six hours, luc-transduced MM cell lines were added at a density of 1×10^4 cells/well in BMSC-coated or uncoated wells. In experiments in which YM155 was tested, YM155 was added at indicated concentrations together with MM cells. After 16-20 hours, daratumumab was added at indicated concentrations and left for 15 minutes at room temperature. Freshly isolated PBMC from healthy individuals were then added as effector cells at the indicated effector target ratios. 4 hours after addition of PBMC, 125 μg/ml beetle luciferin (Promega) was added and the bioluminescent signal emitted from surviving MM cells was determined within 20 minutes using a luminometer (SpectraMax, Molecular Devices). The percentage survival of MM cells was calculated using the formula: % survival=(mean bioluminescent signal in the absence of PBMCs/mean bioluminescent signal in the presence of PBMCs)×100%. In these assays the survival of MM cells is a direct reflection of ADCC mediated lysis and correlates with classical chromium release assays as described in McMillin et al., Nat Med 16:483-489, 2010.
Induction of ADCC by healthy donor BMSCs against two CD38^+ luciferase transduced MM cell lines, UM9 and RPMI was tested with serial concentrations of daratumumab in the presence or absence of HD-PBMCs as effector cells in compartment-specific BLI-based cytotoxicity assays.
In the assays, daratumumab and YM155 were used at a concentration of 0.3 μg/ml and 1 nM, respectively, for RPMI-8226 cells and at a concentration of 1 μg/ml and 120 nM for MM patient samples, respectively. Healthy donor PBMCs were used as effector cells at effector:target cell ratio of 40:1 for RPMI-8226 cells and 30:1 for MM patient samples.

UM9 MM cells = test: Compartment-specific BLI-based ADCC cytotoxicity assay, UM9; format: cell-based, human; conditions: serial concentrations, PBMC:MM 30:1, 4 hours
Method: as §1, with “2010. […]” for “2010.”

primary CD138+ MM cells = test: FACS based ADCC assay in Multiple Myeloma BM-MNC; format: cell-based, human; conditions: presence of autologous MM-BMSCs; both donors; 24 hours
Method: Frozen BM-MNCs from MM patients with 15-35% CD138^+ MM cells were used in FACS-based ADCC assays. The cells were thawed and cultured in 10% HS in RPMI. After 16-20 h, BM-MNCs were counted by trypan blue exclusion and 4×10^4 cells/well were plated in 96 round bottom plates. Daratumumab and/or YM155 were added in the wells as indicated per experiment. After 24 hours, cells were stained with fluorescent conjugated anti-CD138, anti-CD38, anti-CD56 and anti-CD3 antibodies and the survival of primary CD138^+ MM cells in the BM-MNCs was determined by FACS as previously described (Groen et al., Blood 120:e9-e16, 2012). Percentage lysis of MM cells was deduced using the following formula: % lysis cells=1−(counts of surviving CD138^+ cells in treated wells/counts of number of surviving CD138^+ cells in control wells)×100%.
Ability of BMSCs to protect primary MM cells from daratumumab-induced ADCC was also evaluated in a FACS-based ADCC assay using methodology described above. In the assays, BM-MNCs containing at least 15% CD138^+ malignant plasma cells and sufficient numbers of autologous effector NK cells were incubated with daratumumab to induce ADCC. The BM-MNCs were tested either alone or in co-culture with autologous BMSCs to evaluate the effect of BMSCs. FACS-based viability assay was performed after 24 hours of culture to determine CD138^+ surviving cells and calculate lysis. […]

MM cell line UM9 = test: In vivo tumor targeting, UM9 in humanized BM-like scaffolds; design: species or system RAG2−/−γc−/− mice; conditions: UM9 scaffolds s.c.; YM155 1 mg/kg/d for 10 days by s.c. infusion pump; T cell-depleted HD-PBMCs given
Excerpt: FIG. 5. Antitumor effect of daratumumab and YM155 combination therapy. Analysis of tumor load per treatment group in RAG2^−/−γc^−− mice implanted with UM9 cells. Hybrid scaffolds coated with human MSCs and loaded with luciferase transduced MM cell line UM9 were implanted subcutaneously in the back of RAG2^−/−γc^−− mice (4 scaffolds per mice). Ten days after implantation, the growing tumors were visualized and quantified by BLI. Different groups of mice (n=4) were then either treated with vehicle control (control) or treated with daratumumab, YM155 or daratumumab plus YM155 as indicated. […] Mice were monitored weekly by BLI. Results are expressed as the mean tumor load in each scaffold. […] The statistical differences between mice treated with daratumumab and mice treated with daratumumab plus YM155 were calculated using the Mann-Whitney U-test. […]
The in vivo relevance of the combination of daratumumab with YM155 was tested in the preclinical xenograft model in RAG2^−/−gc^−/− mice, in which MM tumors were grown in a humanized BM-like niche created by subcutaneous implantation of ceramic scaffolds coated with human BMSCs. […] Ten days after implantation, the growing tumors were visualized and quantified by BLI. […] Mice were monitored weekly by BLI. […] Statistical differences between mice treated with daratumumab and mice treated with daratumumab plus YM155 were calculated using the Mann-Whitney U-test.

[1] = tested on: NK cells (CD3−CD138−CD56+ cells); test: Effect of YM155 on NK cell viability by FACS; format: cell-based, human; conditions: 24 hours
Method: FIG. 3. […] HD-PBMCs and patient bone marrow mononuclear cells (BMMNCs) were incubated with the indicated concentrations of YM155 for 24 hours. The number of viable CD3^−CD56^+ NK cells was determined by flow cytometry and the percent lysis was calculated using the untreated samples as negative control. Effect of YM155 on NK cell viability was evaluated first. BM-MNCs of MM patients were cultured in the presence of different doses of YM155 for 24 hours. Viability of MM cells (CD138^+ cells) and NK cells (CD3^−CD138^−CD56^+ cells) were determined by FACS.

MM cells (CD138+ cells) = test: Viability of MM cells in BM-MNCs cultured with YM155 by FACS; format: cell-based, human; conditions: BM-MNCs of MM patients; different doses of YM155; 24 hours
Method: Effect of YM155 on NK cell viability was evaluated first. BM-MNCs of MM patients were cultured in the presence of different doses of YM155 for 24 hours. Viability of MM cells (CD138^+ cells) and NK cells (CD3^−CD138^−CD56^+ cells) were determined by FACS.

Compound | lysis of cells (RPMI-8226 cells; absence of BMSCs) | daratumumab-induced ADCC (RPMI-8226 cells; absence of BMSCs, serial concentrations, PBMC:MM 30:1) | lysis of cells (RPMI-8226 cells; presence of BMSCs) | sensitivity to daratumumab-induced ADCC (RPMI-8226 cells; presence of BMSCs, serial concentrations, PBMC:MM 30:1) | daratumumab-induced ADCC (UM9 MM cells; absence of BMSCs) | sensitivity to daratumumab-induced ADCC (UM9 MM cells; presence of BMSCs) | induction of ADCC of primary MM cells (primary CD138+ MM cells) | tumor growth (BLI) (MM cell line UM9) | viability of NK cells ([1]; BM-MNCs of MM patients, different doses of YM155) | NK cell lysis ([1]; HD-PBMCs and patient BMMNCs, indicated concentrations of YM155) | viability of MM cells (CD138+ cells) (MM cells (CD138+ cells))
daratumumab: anti-CD38 antibody of IgG1/κ subtype, VH SEQ ID NO: 4 and VL SEQ ID NO: 5 | about 20% | dose dependent fashion | about 10% | less sensitive | dose dependent fashion | less sensitive | less efficient | marginal effect |  |  | 
COCCn1c2c([n+](Cc3cnccn3)c1C)C(=O)c1ccccc1C2=O [YM155, 4,9-Dihydro-1-(2-methoxyethyl)-2-methyl-4,9-dioxo-3-(2-pyrazinylmethyl)-1H-naphth[2,3-d]imidazolium bromide] | about 20% |  | no effect |  |  |  |  | more pronounced | not affected; also recorded: does not negatively interfere | does not induce NK cell lysis | some toxicity
